Results from the supplement of paper PMC10307832.

Columns and labels:
Experiment in all cases: relative viability (nuclei count vs DMSO), 5 days (fraction); higher = more cells survive
[1] = compound: CC1=CC(=NN1)NC2=CC(=NC(=N2)/C=C/C3=CC=CC=C3)N4CCN(CC4)C + COc1cccc2cc(-c3nc([C@H]4CC[C@H](C(=O)O)CC4)n4ncnc(N)c34)[nH]c12 [OSI-027] (partner 0.5 µM)
How it was run: (§1)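 For relative viability, nuclei counts in treated wells were divided by those in vehicle wells. Lung cancer cell lines had been pin-tool dosed in 1536-well plates the day after seeding and cultured for 5 days, then fixed and stained in one step (final 0.05% Triton X-100, 1% formaldehyde, 1 ug/ml Hoechst) and imaged at 4×. Doses were one drug alone or a fixed anchor-drug dose plus five library-drug doses (not always all listed) in √10 steps, and values are duplicate-plate medians.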

Obatoclax + Alpelisib = compound: COC1=CC(c2cc3ccccc3[nH]2)=N/C1=C\c1[nH]c(C)cc1C [Obatoclax] + Cc1nc(NC(=O)N2CCC[C@H]2C(N)=O)sc1-c1ccnc(C(C)(C)C(F)(F)F)c1 [Alpelisib] (partner 2 µM)
How it was run: as §1

Obatoclax + Luminespib = compound: COC1=CC(c2cc3ccccc3[nH]2)=N/C1=C\c1[nH]c(C)cc1C [Obatoclax] + CCNC(=O)c1noc(-c2cc(C(C)C)c(O)cc2O)c1-c1ccc(CN2CCOCC2)cc1 [Luminespib] (partner 0.01 µM)
How it was run: as §1

[2] = compound: CC1=CC(=NN1)NC2=CC(=NC(=N2)/C=C/C3=CC=CC=C3)N4CCN(CC4)C + Cc1nc(Nc2ncc(C(=O)Nc3c(C)cccc3Cl)s2)cc(N2CCN(CCO)CC2)n1 [Dasatinib] (partner 0.075 µM)
How it was run: as §1

## NCI-H650
[1]; first compound 0.253 µM
  relative viability: 0.597
[1]; first compound 0.8 µM
  relative viability: 0.575
[1]; first compound 2.53 µM
  relative viability: 0.47
[1]; first compound 8 µM
  relative viability: 0.172
Obatoclax + Alpelisib; first compound 0.01 µM
  relative viability: 0.975
Obatoclax + Alpelisib; first compound 0.03162 µM
  relative viability: 1.1
Obatoclax + Alpelisib; first compound 0.1 µM
  relative viability: 0.811
Obatoclax + Alpelisib; first compound 0.3162 µM
  relative viability: 0.693
Obatoclax + Alpelisib; first compound 1 µM
  relative viability: 0.446
Obatoclax + Luminespib; first compound 0.01 µM
  relative viability: 0.712
Obatoclax + Luminespib; first compound 0.03162 µM
  relative viability: 0.802
Obatoclax + Luminespib; first compound 0.3162 µM
  relative viability: 0.44
Obatoclax + Luminespib; first compound 1 µM
  relative viability: 0.305
[2]; first compound 0.253 µM
  relative viability: 0.507
[2]; first compound 0.8 µM
  relative viability: 0.517
[2]; first compound 2.53 µM
  relative viability: 0.352
[2]; first compound 8 µM
  relative viability: 0.195
